In PubChem BioAssay (NCI) one finds TGI data, which are given here for 7 compounds.

SMILES strings stand for the structures.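 Method: 48-hour compound exposure of cells in 96-well plates, five concentrations, linear interpolation of endpoints. Definition used: TGI = concentration required for complete inhibition of growth.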

Some test systems named below: PC-3 prostate; KM12 colon; ACHN renal; BT-549 breast; SNB-19 CNS; HCC-2998 colon; MOLT-4 leukemia; OVCAR-4 ovarian; COLO 205 colon; SNB-75 CNS; RPMI-8226 leukemia; SK-MEL-2 melanoma; LOX IMVI melanoma; SK-MEL-28 melanoma; HCT-15 colon; HS 578T breast; 786-0 renal; CAKI-1 renal; A498 renal; NCI-H226 lung.
What all share (assay): inhibition of tumour cell growth, NCI panel, 48 h

Turning to `COc1cc(C2c3cc4c(cc3OC3(OC)COC(=O)C23)OCO4)cc(OC)c1OC(C)=O` (configuration not stated), the TGI is greater than 36.1 µM in the assay on PC-3 prostate; greater than 100 µM in the assay with KM12 colon; greater than 100 µM in the assay on ACHN renal; greater than 100 µM in the assay on BT-549 breast; greater than 100 µM in the assay on SNB-19 CNS; 14.3 µM with HCC-2998 colon. Moreover, the TGI in the assay with MOLT-4 leukemia was greater than 100 µM; in the assay on OVCAR-4 ovarian, greater than 100 µM; with COLO 205 colon, greater than 49.3 µM; in the assay with SNB-75 CNS, greater than 62.9 µM; in the assay with RPMI-8226 leukemia it was greater than 100 µM; in the assay with SK-MEL-2 melanoma it was greater than 100 µM. Further, the TGI in the assay with LOX IMVI melanoma is greater than 82.2 µM; in the assay with SK-MEL-28 melanoma it was greater than 100 µM; in the assay with HCT-15 colon, greater than 100 µM; in the assay on HS 578T breast, greater than 100 µM; in the assay on 786-0 renal, greater than 100 µM; in the assay with CAKI-1 renal it was greater than 100 µM. Also, in the assay on A498 renal, the TGI is 97.4 µM.
In the case of `Nc1nc(N)c2c3c(cnc2n1)CC(c1ccccc1)CC3` (configuration not stated), the TGI in the assay on PC-3 prostate is greater than 100 µM; in the assay with KM12 colon it was greater than 100 µM; with ACHN renal it was 31.7 µM; in the assay on BT-549 breast, 81.8 µM; in the assay with NCI-H226 lung, greater than 100 µM; with SNB-19 CNS, 46.8 µM. Besides, the TGI in the assay on HCC-2998 colon is greater than 100 µM; in the assay with MOLT-4 leukemia, greater than 100 µM; with OVCAR-4 ovarian it was 41.9 µM; in the assay on COLO 205 colon it was greater than 100 µM; in the assay on SNB-75 CNS it was 35.9 µM; in the assay on RPMI-8226 leukemia, greater than 100 µM. In addition, the TGI in the assay with SK-MEL-2 melanoma was greater than 100 µM; in the assay on LOX IMVI melanoma, 21.6 µM; in the assay on SK-MEL-28 melanoma it was greater than 100 µM; in the assay on HCT-15 colon, greater than 100 µM; in the assay on HS 578T breast, greater than 100 µM; with 786-0 renal, 24.3 µM. For the same compound, the TGI in the assay with CAKI-1 renal and in the assay on A498 renal was greater than 100 µM throughout.
Consider `CCOC(=O)c1nnc2c(C(=O)OCC)c3ccccc3n2c1N`, for which the TGI in the assay on PC-3 prostate was greater than 100 µM; in the assay on KM12 colon, 66.8 µM; in the assay on ACHN renal it was greater than 100 µM; in the assay with BT-549 breast it was greater than 100 µM; with SNB-19 CNS, greater than 100 µM; in the assay on HCC-2998 colon, greater than 100 µM. For the same compound, the TGI in the assay with MOLT-4 leukemia is greater than 100 µM; in the assay on OVCAR-4 ovarian it was greater than 100 µM; with COLO 205 colon it was 49.6 µM; with SNB-75 CNS it was 67.3 µM; in the assay with RPMI-8226 leukemia, 6.39 µM; in the assay on SK-MEL-2 melanoma it was greater than 100 µM. Besides, the TGI in the assay with LOX IMVI melanoma, in the assay on SK-MEL-28 melanoma, in the assay with HCT-15 colon, in the assay on HS 578T breast, in the assay on 786-0 renal and in the assay with CAKI-1 renal was greater than 100 µM each time. This compound gave a TGI in the assay on A498 renal of 60.8 µM.
As to `COC(=O)C(Cc1c[nH]c2ccccc12)NP(=O)(O)OCC1OC(n2cc(I)c(=O)[nH]c2=O)CC1O` (configuration not stated), the TGI in the assay with PC-3 prostate, in the assay with KM12 colon, in the assay on ACHN renal, with BT-549 breast, with NCI-H226 lung and in the assay on SNB-19 CNS was greater than 100 µM each time. Further, the TGI in the assay on MOLT-4 leukemia, with OVCAR-4 ovarian, with COLO 205 colon, in the assay on SNB-75 CNS, in the assay on RPMI-8226 leukemia and in the assay on LOX IMVI melanoma was greater than 100 µM each time. The TGI in the assay on SK-MEL-28 melanoma, in the assay on HCT-15 colon, in the assay on HS 578T breast, in the assay on 786-0 renal, in the assay with CAKI-1 renal and with A498 renal was greater than 100 µM in each case.
For the compound `Cc1nn(-c2ccccc2)c2c1C(c1ccc(Cl)cc1)NC(=S)N2` (configuration not stated), the TGI is 47.9 µM in the assay on PC-3 prostate; 64.8 µM in the assay with KM12 colon; 38.4 µM with ACHN renal; 59.7 µM in the assay with BT-549 breast; greater than 100 µM with NCI-H226 lung; greater than 100 µM with SNB-19 CNS. Further, the TGI is greater than 100 µM with MOLT-4 leukemia; greater than 100 µM in the assay on OVCAR-4 ovarian; 31.2 µM in the assay on COLO 205 colon; greater than 100 µM in the assay on SNB-75 CNS; 48.7 µM with RPMI-8226 leukemia; 38.6 µM with SK-MEL-2 melanoma. The TGI in the assay on LOX IMVI melanoma is 31.1 µM; in the assay on HCT-15 colon, 37.7 µM; in the assay on HS 578T breast, greater than 100 µM; in the assay on 786-0 renal it was 36.8 µM; with CAKI-1 renal, greater than 100 µM; in the assay with A498 renal, 67.1 µM.
Regarding `CCCCCCOC(=O)/C=C/[C@]1(CO)C/C(=C/CC(C(C)C)C(C)C)C(=O)O1`, the TGI in the assay on PC-3 prostate stood at 24.4 µM; in the assay with KM12 colon it was 33.3 µM; in the assay with ACHN renal it was 20.7 µM; in the assay on BT-549 breast, 22.9 µM; with NCI-H226 lung, 16.7 µM; with SNB-19 CNS it was 22.6 µM. Moreover, the TGI was determined as 6.18 µM in the assay on HCC-2998 colon; 25.6 µM in the assay with MOLT-4 leukemia; 36 µM with OVCAR-4 ovarian; 27.7 µM with SNB-75 CNS; 56.1 µM with RPMI-8226 leukemia; 30.7 µM with SK-MEL-2 melanoma. The TGI with LOX IMVI melanoma stood at 24.6 µM; in the assay on SK-MEL-28 melanoma, 23.2 µM; in the assay on HCT-15 colon it was 28.6 µM; in the assay on HS 578T breast, 22.1 µM; with 786-0 renal, 17.6 µM; with CAKI-1 renal, 23.7 µM. Further, the TGI in the assay on A498 renal was 20.6 µM.
With `CC#CCOC(=O)c1ccccc1OC(C)=O`, the TGI in the assay with PC-3 prostate, in the assay with KM12 colon, in the assay on ACHN renal, in the assay on BT-549 breast, in the assay with NCI-H226 lung and with SNB-19 CNS was greater than 100 µM throughout. The TGI with HCC-2998 colon, with MOLT-4 leukemia, in the assay with OVCAR-4 ovarian, with COLO 205 colon, in the assay with SNB-75 CNS and in the assay on RPMI-8226 leukemia was greater than 100 µM throughout. Moreover, the TGI in the assay on SK-MEL-2 melanoma, with LOX IMVI melanoma, with HCT-15 colon, with HS 578T breast, in the assay with 786-0 renal and with CAKI-1 renal was greater than 100 µM in each case. The compound further showed a TGI in the assay on A498 renal greater than 100 µM.
